Test results published in patent publication EP4151631A1, “HETEROCYCLIC COMPOUNDS FOR THE CONTROL OF INVERTEBRATE PESTS” (BASF SE, priority 2021, dated 2023).

Columns and labels:
Spodoptera eridania = assay: Southern armyworm foliar spray test on lima bean plants; format: in vivo; settings: 96 h, 2nd instar larvae on sprayed lima bean plants, 4 days after treatment, read-out: mortality in comparison with untreated controls
Experimental: The active compounds were formulated by a Tecan liquid handler in 100% cyclohexanone as a 10,000 ppm solution supplied in tubes. The 10,000 ppm solution was serially diluted in 100% cyclohexanone to make interim solutions. These served as stock solutions for which final dilutions were made by the Tecan in 50% acetone:50% water (v/v) into 10 or 20ml glass vials. A nonionic surfactant (Kinetic®) was included in the solution at a volume of 0.01% (v/v). The vials were then inserted into an automated electrostatic sprayer equipped with an atomizing nozzle for application to plants/insects. Lima bean plants (variety Sieva) were grown 2 plants to a pot and selected for treatment at the 1st true leaf stage. Test solutions were sprayed onto the foliage by an automated electrostatic plant sprayer equipped with an atomizing spray nozzle. The plants were dried in the sprayer fume hood and then removed from the sprayer. Each pot was placed into perforated plastic bags with a zip closure. Ten to 11 armyworm larvae were placed into the bag and the bags zipped closed. Test plants were maintained in a growth room at about 25°C and about 20-40% relative humidity for 4 days, avoiding direct exposure to fluorescent light (14:10 light:dark photoperiod) to prevent trapping of heat inside the bags. Mortality and reduced feeding were assessed 4 days after treatment, compared to untreated control plants.

Plutella xylostella = assay: Diamond back moth leaf-dip test on cabbage leaves; format: in vivo; settings: 3rd instar larvae on dipped cabbage leaves, 72 hours after treatment, read-out: mortality in comparison with untreated controls
Experimental: The active compound was dissolved at the desired concentration in a mixture of 1:1 (vol:vol) distilled water: acetone. Surfactant (Kinetic HV) was added at a rate of 0.01% (vol/vol). The test solution was prepared on the day of use.
Leaves of cabbage were dipped in test solution and air-dried. Treated leaves were placed in petri dishes lined with moist filter paper and inoculated with ten 3rd instar larvae. Mortality was recorded 72 hours after treatment. Feeding damages were also recorded using a scale of 0-100%.

## CC(NC(=O)c1cc(Br)cc(C(F)(F)F)c1)c1nccnc1-n1ncn(C)c1=O (stereo not shown) [I-1, 3-bromo-N-[1-[3-(4-methyl-5-oxo-1,2,4-triazol-1-yl)pyrazin-2-yl]ethyl]-5-(trifluoromethyl)benzamide]
Spodoptera eridania
  mortality at 300 ppm: ≥ 75%
Plutella xylostella
  mortality at 300 ppm: ≥ 75%

## CC(NC(=O)c1cc(Br)cc(C(F)(F)F)c1)c1nccnc1-n1ncn(CC(F)(F)F)c1=O (stereo not shown) [I-2, 3-bromo-N-[1-[3-[5-oxo-4-(2,2,2-trifluoroethyl)-1,2,4-triazol-1-yl]pyrazin-2-yl]ethyl]-5-(trifluoromethyl)benzamide]
Spodoptera eridania
  mortality at 300 ppm: ≥ 75%
Plutella xylostella
  mortality at 300 ppm: ≥ 75%
